Earlier results on 2 compounds are cited in paper PMC10034008, “Pretargeted imaging beyond the blood–brain barrier” (RSC Medicinal Chemistry, 2022).

On the set-up of this data set: method as in ESI 3, 4. The note with it: irreversible tracers in their respective target regions; ref ESI 3, 4.

For `[11CH3]N1CN(c2ccccc2)C2(CCN(CCCC(=O)c3ccc(F)cc3)CC2)C1=O` [N-[11C]methylspiperone], the “trapping rate k3” value was 0.06 min⁻¹.
On to `CCC(=O)OC1CCN([11CH3])CC1` [[11C]PMP], for which the “trapping rate k3” value was 0.03 to 0.35 min⁻¹.
